Test results as given in patent US9987256B2, “CFTR corrector for the treatment of genetic disorders affecting striated muscle” (UNIVERSITA' DEGLI STUDI DI PADOVA, priority 2012, dated 2018).
Changes are numbered by the printed parent chain.

What was measured:
[1] = target: T1, R98H mutant of alpha-sarcoglycan (Homo sapiens, UniProt Q16586, R98H); assay: Confocal immunofluorescence, membrane localization of R98H alpha-sarcoglycan in HEK293 cells; assay type: cell-based; conditions: HEK293, 24 hours
T1 construct: expressed in transfected cells; host or cells: HEK293
T1 sequence (Q16586 24-387 R98H): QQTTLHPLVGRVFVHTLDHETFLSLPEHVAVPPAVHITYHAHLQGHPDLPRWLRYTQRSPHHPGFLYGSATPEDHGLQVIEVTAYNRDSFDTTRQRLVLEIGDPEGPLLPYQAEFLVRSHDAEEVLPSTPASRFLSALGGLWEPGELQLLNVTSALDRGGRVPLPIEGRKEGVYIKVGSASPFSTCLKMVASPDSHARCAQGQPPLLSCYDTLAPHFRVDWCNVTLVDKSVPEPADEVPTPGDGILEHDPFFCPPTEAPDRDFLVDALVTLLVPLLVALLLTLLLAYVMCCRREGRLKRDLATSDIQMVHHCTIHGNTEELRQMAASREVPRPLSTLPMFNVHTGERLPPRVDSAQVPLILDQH
Protocol: (§1) The cellular localization of either the V247M or R98H mutants, upon corrector treatments, has been verified by confocal immunofluorescence.
(§2) In the experiment reported in FIG. 8, HEK 293 cells expressing the R98H mutant have been treated for 24 hours with either Compound H (15 μM), Compound I (10 μM), Compound Q (10 μM), Compound A (2 μM) or the vehicle DMSO at 1% o concentration used as negative control. By comparison, cells expressing the wild type form of α-sarcoglycan have also been used. At the end of treatments, not permeabilized cells were incubated with a monoclonal antibody specific for an extracellular epitope of α-sarcoglycan in order to mark only the membrane resident α-sarcoglycan.
as §2, with “9,” for “8,”, “either two different concentration of” for “either”, “R (2.5 and 5” for “H (15”, “μM),” for “μM), Compound I (10 μM), Compound Q (10 μM), Compound A (2 μM)”, “1‰” for “1% o”

R164H mutant of SERCA1 = target: T2, R164H mutant of SERCA1 (Bos taurus, UniProt Q0VCY0, R164H); assay: Western blot rescue of R164H mutant of SERCA1 in HEK293 cells; assay type: cell-based, bovine; conditions: HEK293, 24 hours, relative to wild type
T2 construct: expressed in transfected cells; host or cells: HEK 293
T2 sequence (Q0VCY0 whole entry R164H): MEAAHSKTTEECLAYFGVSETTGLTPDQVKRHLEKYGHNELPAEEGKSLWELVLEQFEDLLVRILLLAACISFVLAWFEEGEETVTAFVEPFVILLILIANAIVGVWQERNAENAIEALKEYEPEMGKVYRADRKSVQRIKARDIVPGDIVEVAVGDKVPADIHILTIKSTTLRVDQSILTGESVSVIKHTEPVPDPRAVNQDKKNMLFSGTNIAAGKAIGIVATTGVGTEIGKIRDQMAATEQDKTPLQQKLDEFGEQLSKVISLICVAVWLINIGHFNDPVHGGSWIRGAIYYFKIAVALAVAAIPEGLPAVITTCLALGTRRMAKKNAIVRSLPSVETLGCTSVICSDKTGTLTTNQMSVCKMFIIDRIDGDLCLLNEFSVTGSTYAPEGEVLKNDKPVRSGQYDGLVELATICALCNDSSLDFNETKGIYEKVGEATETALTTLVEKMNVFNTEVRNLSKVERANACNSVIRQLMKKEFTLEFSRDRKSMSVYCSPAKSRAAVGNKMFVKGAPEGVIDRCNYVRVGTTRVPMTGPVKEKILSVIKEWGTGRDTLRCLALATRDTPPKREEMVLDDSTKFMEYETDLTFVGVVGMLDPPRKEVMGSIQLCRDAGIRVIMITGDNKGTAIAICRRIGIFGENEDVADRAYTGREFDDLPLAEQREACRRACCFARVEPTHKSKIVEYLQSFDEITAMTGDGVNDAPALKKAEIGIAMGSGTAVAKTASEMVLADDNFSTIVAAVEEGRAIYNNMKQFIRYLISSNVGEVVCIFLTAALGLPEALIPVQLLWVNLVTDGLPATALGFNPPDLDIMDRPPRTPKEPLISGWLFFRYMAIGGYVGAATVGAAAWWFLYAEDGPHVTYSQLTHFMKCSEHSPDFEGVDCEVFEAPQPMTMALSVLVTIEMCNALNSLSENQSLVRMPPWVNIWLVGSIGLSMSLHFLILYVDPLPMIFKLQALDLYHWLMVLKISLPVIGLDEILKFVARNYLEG
Protocol: In FIG. 3 are reported the results obtained with HEK 293 cells expressing the R164H mutant of SERCA1 treated for 24 hours with either Compound C 5 μM, Compound B 10 μM, Compound E 10 μM, compound F 10 μM, Compound A 2 μM, compound D 10 μM, MG132 (proteasome inhibitor) 10 μM, used as positive control or the vehicle DMSO at 1‰ concentration, used as negative control. At the end of treatments, cells were lysed and total protein resolved by SDS-PAGE. Western blotting analysis has been performed by using SERCA1 specific antibody and β-actin specific antibody, to normalize loaded proteins. In the upper panel of FIG. 3 is reported a representative Western blotting experiment. The expression of SERCA1 in different samples has been determined by densitometric analysis and indicated as percentage of SERCA 1 content present in wild type expressing cells treated with DMSO.
In FIG. 10 is reported the content of SERCA1 protein present in HEK 293 cells transfected with the R164H mutant of SERCA1 and treated for 24 hours with either Compound H 15 μM, Compound I 10 μM, compound Q 10 μM, Compound R 5 μM, Compound S 15 μM, Compound T 15 μM or the vehicle DMSO at 1‰ concentration, used as negative control. Cells expressing the wild type form of SERCA1 have also been used for comparison. At the end of treatments, cells were lysed and total protein resolved by SDS-PAGE. Western blotting analysis has been performed by using SERCA1 specific antibody and β-actin specific antibody, to normalize loaded proteins. The expression of SERCA1 in different samples has been determined by densitometric analysis and indicated as percentage of SERCA 1 content present in wild type expressing cells. The graph of FIG. 10 reports the average values (+/− standard error) of at least three independent experiments.

[2] = target: T3, V247M mutant of alpha-sarcoglycan (Homo sapiens, UniProt Q16586, V247M); assay: Confocal immunofluorescence, membrane localization of V247M alpha-sarcoglycan in HEK293 cells; assay type: cell-based; conditions: FIG. 2; HEK293, 24 hours; E 10 μM, D 10 μM, MG132 positive control; not permeabilized cells
T3 construct: expressed in transfected cells; host or cells: HEK 293
T3 sequence (Q16586 24-387 V247M): T1 sequence (Q16586 24-387 R98H) with H75R, V224M
Protocol: as §1
In the experiment reported in FIG. 2, HEK 293 cells expressing the V247M mutant have been treated for 24 hours with either Compound E (10 μM) or Compound D (10 μM), MG132 (positive control) or DMSO at 1‰ concentration (negative control). At the end of treatments, not permeabilized cells were incubated with a monoclonal antibody specific for an extracellular epitope of α-sarcoglycan in order to mark only the membrane resident α-sarcoglycan. By comparison, cells expressing the wild type form of α-sarcoglycan have also been used.

[3] = FIG. 8, H 15 μM, I 10 μM, Q 10 μM, A 2 μM
[4] = FIG. 3, C 5 μM, B 10 μM, E 10 μM, F 10 μM, A 2 μM, D 10 μM
[5] = FIG. 10, H 15 μM, I 10 μM, Q 10 μM, R 5 μM, S 15 μM, T 15 μM

| SERCA1 protein level (western blot, densitometry), rescue of R164H mutant (R164H mutant of SERCA1; [4]) | SERCA1 protein level (western blot, densitometry), rescue of R164H mutant (R164H mutant of SERCA1; [5]) | SMILES | plasma membrane localization of R98H alpha-sarcoglycan mutant [1, 3] | also measured |
| --- | --- | --- | --- | --- |
| – | promote the rescue | CC(=O)c1cccc(Nc2nc(-c3sc(NC(=O)c4ccccc4)nc3C)cs2)c1 [Compound Q, N-(2-(3-acetylphenylamino)-4′-methyl-4,5′-bithiazol-2′-yl)-benzamide] | promote the correct membrane localization | – |
| promote the rescue | – | COc1ccc(Cl)cc1Nc1nc(-c2sc(NC(=O)c3ccccc3)nc2C)cs1 [Compound E, N-[2-(5-Chloro-2-methoxy-phenylamino)-4′-methyl-[4,5′]bithiazolyl-2′-yl]-benzamide] | – | plasma membrane localization of V247M alpha-sarcoglycan mutant [2]: promoted the correct plasma membrane localization |
| – | promote the rescue | C=Cc1ccc(-c2csc(Nc3ccccc3)n2)cc1 [Compound S, N-phenyl-4-(4-vinylphenyl)thiazol-2-amine] | – | – |
| – | promote the rescue | Cc1cc(C)c2c(C)cc(Nc3ccccc3)nc2c1 [Compound H, 4,5,7-trimethyl-N-phenylquinolin-2-amine] | promote the correct membrane localization | – |
| – | promote the rescue | Cc1cc(Nc2ccc(Br)cc2)nc2ccccc12 [Compound I, N-(4-bromophenyl)-4-methylquinolin-2-amine] | promote the correct membrane localization | – |

The remaining lines, values behind:

| SMILES | SERCA1 protein level (western blot, densitometry), rescue of R164H mutant (R164H mutant of SERCA1; [4]) | SERCA1 protein level (western blot, densitometry), rescue of R164H mutant (R164H mutant of SERCA1; [5]) | plasma membrane localization of R98H alpha-sarcoglycan mutant [1, 3] | also measured |
| --- | --- | --- | --- | --- |
| COc1ccc(Cl)cc1Nc1nc(-c2sc(NC(=O)C(C)(C)C)nc2C)cs1 [Compound A, N-(2-(5-chloro-2-methoxyphenylamino)-4′-methyl-4,5′-bithiazol-2′-yl)pivalamide] | promote the rescue | – | promote the correct membrane localization | – |
| COc1ccc2nc(Nc3nc(=O)c(C)c(C)[nH]3)nc(C)c2c1 [Compound T, 2-(6-methoxy-4-methylquinazolin-2-ylamino)-5,6-dimethylpyrimidin-4(1H)-one] | – | promote the rescue | – | – |
| O=S(=O)(c1ccc(Cl)cc1)N1CCN(c2ccnc3cc(Cl)ccc23)CC1 [Compound F, 7-chloro-4-(4-(4-chlorophenylsulfonyl)piperazin-1-yl)quinoline] | promote the rescue | – | – | – |
| COc1ccccc1Nc1nc(-c2sc(NC(=O)c3ccccc3)nc2C)cs1 [Compound R, N-(2-(2-methoxyphenylamino)-4′-methyl-4,5′-bithiazol-2′-yl)-benzamide] | – | promote the rescue | – | plasma membrane localization of R98H alpha-sarcoglycan mutant ([1]; FIG. 9, Compound R 2.5 and 5 μM): promoted the correct plasma-membrane localization |
